According to patent US10632147B2, “Methods and compositions for treating inflammatory disorders” (priority 2007, dated 2020):

Tests used:
[1] = system: Salmonella typhimuium (strains TA1535, TA1537, TA98 and TA100); test: Bacterial mutagenicity; conditions: 241-252 ppm AFC, absence and presence of liver S9 fraction
[2] = system: human norovirus; test: Norovirus carrier test; conditions: ceramic tiles and stainless steels, 1 min contact time, 20-200 ppm, RNA testing
[3] = Dermal irritation study (Draize); assay type: in vivo, New Zealand white rabbits; conditions: 0.5 ml, 689.5 ppm AFC, intact and abraded site; Draize at 24 and 72 hours
Protocol: A skin irritation study was conducted on six healthy New Zealand white rabbits. The test article (0.5 ml hypochlorous acid, 689.5 ppm AFC) was applied to one intact and one abraded site on the clipped back of each rabbit. Skin reactions were evaluated by the Draize technique at 24 and 72 hours after dosing and the primary irritation index was calculated. There was no erythema or edema noted at any time period and there were no abnormal physical signs noted during the observation period.

[4] = system: Clostridium difficile (spores); test: Endospore Time Kill Assay; assay type: cell-based; conditions: for Log Reduction / Vashe Log10 / Vashe Survivors / % Reduction (% Kill): ≤150 ppm AFC
[5] = system: Mycobacterium avium ATCC 15769; test: Mycobactericidal suspension test; assay type: cell-based
Protocol: (§1) Broth cultures of either M. terrae (ATCC 15755) and M. avium (ATCC 15769) were grown for up to 35 days at 35° C. […] The plates were incubated for 4-5 weeks at 35° C. and colonies counted.

[6] = system: Mycobacterium terrae ATCC 15755; test: Mycobactericidal suspension test; assay type: cell-based
Protocol: as §1

[7] = system: Enterobacter aerogenes ATCC #51342; test: Microbial Time Kill Assay; assay type: cell-based; conditions: 150 ppm AFC, 15 second contact time
[8] = system: Escherichia coli ATCC #8739; test: Microbial Time Kill Assay; assay type: cell-based; conditions: 150 ppm AFC, 15 second contact time
[9] = system: Acinetobacter baumannii ATCC #19606; test: Microbial Time Kill Assay; assay type: cell-based; conditions: 150 ppm AFC, 15 second contact time
[10] = system: Bacillus cereus CIP 7 803; test: Sporicidal suspension test; assay type: cell-based
[11] = Pilot study HOCl versus Sulfamylon as irrigant over excised and grafted burn
[12] = system: Pseudomonas aeruginosa ATCC 15442; test: Bactericidal suspension test; assay type: cell-based
[13] = system: Klebsiella oxytoca ATCC #12833; test: Microbial Time Kill Assay; assay type: cell-based; conditions: 150 ppm AFC, 15 second contact time
[14] = system: Staphylococcus aureus (MRSA) ATCC #33591; test: Microbial Time Kill Assay; assay type: cell-based; conditions: 150 ppm AFC, 15 second contact time
[15] = system: Proteus mirabilis ATCC #43071; test: Microbial Time Kill Assay; assay type: cell-based; conditions: 150 ppm AFC, 15 second contact time
[16] = system: Candida albicans ATCC #10231; test: Microbial Time Kill Assay; assay type: cell-based; conditions: 150 ppm AFC, 15 second contact time
Protocol: (§2) Fungicidal activity tests were performed using hypochlorous acid (140-150 ppm) against Candida albicans ATCC 10231 and Aspergillus niger ATCC 16404. Stock culture of Candida albicans ATCC 10231 and Aspergillus niger ATCC 16404 were grown and maintained on Malt Extract Agar at 30° C. […] All samples were serially diluted, plated out on Tryptic Soy Agar, incubated at 37° C. for 3 days and colonies forming units counted.

[17] = system: Staphylococcus aureus ATCC #6538; test: Microbial Time Kill Assay; assay type: cell-based; conditions: 150 ppm AFC, 15 second contact time
[18] = system: Staphylococcus haemolyticus ATCC #29968; test: Microbial Time Kill Assay; assay type: cell-based; conditions: 150 ppm AFC, 15 second contact time
[19] = system: Serratia marcescens ATCC #14756; test: Microbial Time Kill Assay; assay type: cell-based; conditions: 150 ppm AFC, 15 second contact time
[20] = system: Orthopoxvirus from vaccine; assay type: cell-based
[21] = system: wound pathogens including S. aureus, P. aeruginosa, E. coli, Enterococcus spp., and Candida spp.; test: In vitro antimicrobial studies against wound pathogens; assay type: cell-based; conditions: within a 15 seconds contact time, even at ≤150 ppm
[22] = system: Enterococcus faecium (VRE) ATCC #51559; test: Microbial Time Kill Assay; assay type: cell-based; conditions: 150 ppm AFC, 15 second contact time
[23] = system: Candida albicans ATCC 10231; test: Fungicidal suspension test; assay type: cell-based
Protocol: as §2

[24] = system: Aspergillus niger ATCC 16404; test: Fungicidal suspension test; assay type: cell-based
Protocol: as §2

[25] = hypochlorous acid 40-180 ppm, suspension test

OCl [hypochlorous acid]
mutagenic activity [1]: No evidence of mutagenic activity | inactivation of human norovirus [2]: > 3 log10 | dermal irritation [3]: no dermal irritation | contact time after which pass was achieved [4, 25]: 5 min | Log Reduction ([4]; contact time 15 seconds): 3.15 | Vashe Log10 ([4]; contact time 15 seconds): 2.52 | Vashe Survivors ([4]; contact time 15 seconds): 330 | % Reduction (% Kill) ([4]; contact time 15 seconds, listed as HOCl solution): 99.93% | % Reduction (% Kill) ([4]; contact time 15 seconds, listed as hypochlorous acid solution): > 99.9% | % Reduction (% Kill) ([4]; contact time 5 minutes): >99.999% | Log Reduction ([4]; contact time 5 minutes): ≥5.69 | Vashe Log10 ([4]; contact time 5 minutes): ≤1 | Vashe Survivors ([4]; contact time 5 minutes): <10 | contact time after which pass was achieved [5, 25]: 15 s | Test Result (Log reduction) ([5]; in 5 min., 20° C. ± 1° C.): >10^5 in 5 min. | contact time after which pass was achieved [6, 25]: 15 s | Test Result (Log reduction) ([6]; in 5 min., 20° C. ± 1° C.): >10^5 in 5 min. | % Reduction (% Kill) [7]: >99.999% | HOCl Solution Log10 [7]: ≤1 | HOCl Solution Survivors [7]: <10 | Log Reduction [7]: ≥5.43 | % Reduction (% Kill) [8]: >99.999% | HOCl Solution Log10 [8]: ≤1 | HOCl Solution Survivors [8]: <10 | Log Reduction [8]: ≥5.28 | % Reduction (% Kill) [9]: >99.999% | HOCl Solution Log10 [9]: ≤1 | HOCl Solution Survivors [9]: <10 | Log Reduction [9]: ≥5.15 | contact time after which pass was achieved [10, 25]: 60 min | Test Result (Log reduction) ([10]; in 60 min., 20° C. ± 1° C.): >10^6 in 60 min. | safety profile (adverse effects) [11]: absence of adverse effects | graft take and infection prevention compared with Sulfamylon ([11]; 150-180 ppm AFC): equivalency | pain reduction (visual analogue scale) compared with Sulfamylon group ([11]; 150-180 ppm AFC): better | contact time after which pass was achieved [12, 25]: 15 s | Test Result (Log reduction) ([12]; in 5 min., 20° C. ± 1° C.): >10^5 in 5 min. | % Reduction (% Kill) [13]: >99.999% | HOCl Solution Log10 [13]: ≤1 | HOCl Solution Survivors [13]: <10 | Log Reduction [13]: ≥5.18 | % Reduction (% Kill) [14]: >99.999% | HOCl Solution Log10 [14]: ≤1 | HOCl Solution Survivors [14]: <10 | Log Reduction [14]: ≥5.20 | % Reduction (% Kill) [15]: >99.999% | HOCl Solution Log10 [15]: ≤1 | HOCl Solution Survivors [15]: <10 | Log Reduction [15]: ≥5.40 | % Reduction (% Kill) [16]: >99.999% | HOCl Solution Log10 [16]: ≤1 | HOCl Solution Survivors [16]: <10 | Log Reduction [16]: ≥5.63 | % Reduction (% Kill) [17]: >99.995% | HOCl Solution Log10 [17]: ≤1 | HOCl Solution Survivors [17]: <10 | Log Reduction [17]: ≥4.96 | % Reduction (% Kill) [18]: >99.999% | HOCl Solution Log10 [18]: ≤1 | HOCl Solution Survivors [18]: <10 | Log Reduction [18]: ≥5.57 | % Reduction (% Kill) [19]: >99.999% | HOCl Solution Log10 [19]: ≤1 | HOCl Solution Survivors [19]: <10 | Log Reduction [19]: ≥5.08 | contact time after which pass was achieved [20, 25]: 15 min | Test Result (Log reduction) ([20]; in 15 min., 20° C. ± 1° C.): >10^4 in 15 min. | kill [21]: > 5 log | % Reduction (% Kill) [22]: >99.999% | HOCl Solution Log10 [22]: ≤1 | HOCl Solution Survivors [22]: <10 | Log Reduction [22]: ≥5.20 | contact time after which pass was achieved [23, 25]: 15 s | Test Result (Log reduction) ([23]; in 5 min., 20° C. ± 1° C.): >10^4 in 5 min. | contact time after which pass was achieved [24, 25]: 15 s | Test Result (Log reduction) ([24]; in 5 min., 20° C. ± 1° C.): >10^4 in 5 min.
